# Assay results published in the supplement of paper PMC10307832.
# Legend:
# Assay in all cases: relative viability (nuclei count vs DMSO), 5 days (fraction); higher = more cells survive
# Doxorubicin + Alpelisib = compound: COc1cccc2c1C(=O)c1c(O)c3c(c(O)c1C2=O)C[C@@](O)(C(=O)CO)C[C@@H]3O[C@H]1C[C@H](N)[C@H](O)[C@H](C)O1 [Doxorubicin] + Cc1nc(NC(=O)N2CCC[C@H]2C(N)=O)sc1-c1ccnc(C(C)(C)C(F)(F)F)c1 [Alpelisib] (partner 2 µM)
# How it was run: (§1)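 Values are medians from duplicate plates. Each reflects relative viability, defined as the nuclei count of treated wells over that of vehicle wells. Lung cancer cell lines in 1536-well plates were pin-tool dosed one day after seeding with one drug alone or with a fixed anchor-drug dose plus five library-drug doses (not always all listed) in √10 steps, then fixed, stained and imaged at 4× after 5 days.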
# BAY61-3606 + Palbociclib = compound: COC1=C(C=C(C=C1)C2=CC3=NC=CN3C(=N2)NC4=C(C=CC=N4)C(=O)N)OC [BAY61-3606] + CC(=O)c1c(C)c2cnc(Nc3ccc(N4CCNCC4)cn3)nc2n(C2CCCC2)c1=O [Palbociclib] (partner 0.5 µM)
# How it was run: as §1
# Doxorubicin + Decitabine = compound: COc1cccc2c1C(=O)c1c(O)c3c(c(O)c1C2=O)C[C@@](O)(C(=O)CO)C[C@@H]3O[C@H]1C[C@H](N)[C@H](O)[C@H](C)O1 [Doxorubicin] + Nc1ncn([C@H]2C[C@H](O)[C@@H](CO)O2)c(=O)n1 [Decitabine] (partner 2 µM)
# How it was run: as §1
# BAY61-3606 + Pemetrexed = compound: COC1=C(C=C(C=C1)C2=CC3=NC=CN3C(=N2)NC4=C(C=CC=N4)C(=O)N)OC [BAY61-3606] + Nc1nc2[nH]cc(CCc3ccc(C(=O)N[C@@H](CCC(=O)O)C(=O)O)cc3)c2c(=O)[nH]1 [Pemetrexed] (partner 0.2 µM)
# How it was run: as §1
Cell Line,relative viability (Doxorubicin + Alpelisib; first compound 0.001 µM),relative viability (Doxorubicin + Alpelisib; first compound 0.003162 µM),relative viability (Doxorubicin + Alpelisib; first compound 0.01 µM),relative viability (Doxorubicin + Alpelisib; first compound 0.03162 µM),relative viability (Doxorubicin + Alpelisib; first compound 0.1 µM),relative viability (BAY61-3606 + Palbociclib; first compound 0.02 µM),relative viability (BAY61-3606 + Palbociclib; first compound 0.06325 µM),relative viability (BAY61-3606 + Palbociclib; first compound 0.2 µM),relative viability (BAY61-3606 + Palbociclib; first compound 0.6325 µM),relative viability (BAY61-3606 + Palbociclib; first compound 2 µM),relative viability (Doxorubicin + Decitabine; first compound 0.001 µM),relative viability (Doxorubicin + Decitabine; first compound 0.003162 µM),relative viability (Doxorubicin + Decitabine; first compound 0.01 µM),relative viability (Doxorubicin + Decitabine; first compound 0.03162 µM),relative viability (Doxorubicin + Decitabine; first compound 0.1 µM),relative viability (BAY61-3606 + Pemetrexed; first compound 0.02 µM),relative viability (BAY61-3606 + Pemetrexed; first compound 0.06325 µM),relative viability (BAY61-3606 + Pemetrexed; first compound 0.2 µM),relative viability (BAY61-3606 + Pemetrexed; first compound 0.6325 µM),relative viability (BAY61-3606 + Pemetrexed; first compound 2 µM)
LK-2,0.521,0.642,0.947,0.868,0.85,0.641,0.74,0.822,0.697,0.567,0.238,0.376,0.251,0.258,0.23,0.245,0.232,0.384,0.288,0.252
HCC-44,0.823,0.801,0.751,0.78,0.93,0.959,0.941,0.924,0.968,1.13,1.01,1.01,0.902,0.964,0.977,0.613,0.692,0.682,0.659,0.651
BEN,1.09,1.04,0.913,0.656,0.886,0.456,0.438,0.477,0.442,0.509,0.757,0.714,0.712,0.62,0.607,0.959,0.627,0.727,0.748,0.724
NCI-H2405,,0.728,0.82,0.663,0.406,0.564,0.517,0.503,0.592,0.494,0.711,0.759,0.774,0.579,0.497,1.09,1.08,1.01,1.01,0.82
NCI-H1395,0.964,0.985,0.98,0.851,0.791,0.702,0.598,0.608,0.682,0.59,0.724,0.666,0.634,0.614,0.651,1.04,0.659,0.72,0.899,0.73
201T,1.02,0.969,0.985,0.969,1.02,0.346,0.349,0.341,0.397,0.366,0.899,0.879,0.824,0.835,0.804,0.358,0.366,0.339,0.325,0.32
NCI-H358,0.796,0.916,0.569,0.19,0.154,0.123,0.143,0.136,0.125,0.101,0.206,0.17,0.154,0.12,0.0966,0.196,0.184,0.226,0.163,0.153
NCI-H650,1.31,1.13,1.06,0.938,0.822,0.34,0.337,0.371,0.365,0.306,0.287,0.336,0.283,0.265,0.304,0.958,0.904,0.892,1.01,0.797
PC-3 [JPC-3],1.02,1.02,1.05,1,1.03,0.531,0.512,0.529,0.521,0.517,0.765,0.803,0.907,0.829,0.732,1.12,1.05,1.21,1.13,1.04
HCC-15,0.85,0.939,0.633,0.727,0.573,0.803,0.673,0.708,0.768,0.601,0.628,0.704,0.571,0.408,0.211,0.235,0.216,0.233,0.213,0.204
LCLC-97TM1,0.228,0.219,0.269,0.24,0.285,0.241,0.222,0.281,0.218,0.301,0.229,0.233,0.178,0.176,0.242,0.188,0.165,0.195,0.145,0.166
NCI-H647,1.15,1.08,0.98,0.288,0.163,0.386,0.358,0.328,0.401,0.235,0.39,0.387,0.342,0.206,0.183,0.146,0.156,0.184,0.145,0.131
EPLC-272H,0.898,1.04,0.913,0.902,1.02,0.322,0.338,0.373,0.352,0.318,0.382,0.324,0.32,0.387,0.423,0.374,0.299,0.319,0.374,0.278
